From patent publication US8927489B2, “Sustained release preparation of pro-insulin C-peptide” (Cebix Incorporated, priority 2005, dated 2015)

Columns and labels:
[1] = cited from earlier work
[2] = dose injected into a rat; cited from earlier work
[3] = Subcutaneous administration of C-peptide formulations in rats: C-peptide in serum; assay type: in vivo, Sprague-Dawley male rats; details: rat, sc, 75 nmole/kg as a common aqueous solution, within 2 h, data not shown, read-out: serum concentration of C-peptide
Experimental: About 1 ml of each sample was transferred to a plastic syringe with a Luer-lok Tip (Becton Dickinson), which then was sealed with a Combi Stopper (Braun). Prior to administration a 23G Microlance (Becton Dickinson) was connected to the syringe. Each syringe was weighed before and after administration to the animal.
Thirty Sprague-Dawley male rats with a body weight of about 300 g were divided into 5 groups of 6 animals to test the uptake of C-peptide in the formulations outlined above. […] The serum obtained by centrifugation was collected and stored at −80° C. until analysis. Determination of C-peptide in serum was performed by an automatic immunoassay system (AutoDELFIA™ C-peptide, Perkin Elmer, Wallac Oy, Turku, Finland), with a detection limit of 0.005 nM and a precision below 5%. To fit into the calibration curve, the samples were diluted prior to analysis 100 times.

- level at time molar [3]: < 1 nM
SMILES: CC(C)C[C@H](NC(=O)[C@H](C)NC(=O)[C@H](CC(C)C)NC(=O)[C@@H]1CCCN1C(=O)[C@H](CCC(N)=O)NC(=O)[C@H](CC(C)C)NC(=O)[C@H](CO)NC(=O)CNC(=O)[C@H](C)NC(=O)CNC(=O)[C@@H]1CCCN1C(=O)CNC(=O)CNC(=O)CNC(=O)[C@H](CC(C)C)NC(=O)[C@H](CCC(=O)O)NC(=O)[C@@H](NC(=O)[C@H](CCC(N)=O)NC(=O)CNC(=O)[C@@H](NC(=O)[C@H](CCC(N)=O)NC(=O)[C@H](CC(C)C)NC(=O)[C@H](CC(=O)O)NC(=O)[C@H](CCC(=O)O)NC(=O)[C@H](C)NC(=O)[C@@H](N)CCC(=O)O)C(C)C)C(C)C)C(=O)N[C@@H](CCC(=O)O)C(=O)NCC(=O)N[C@@H](CO)C(=O)N[C@@H](CC(C)C)C(=O)N[C@@H](CCC(N)=O)C(=O)O [C-peptide, proinsulin C-peptide]
- in vivo half life circulating in blood [1]: approximately 30 minutes
- time within which an injected dose has disappeared entirely from circulation [2]: 2 to 3 h
